Assay results: US20090018134A1, “Compounds - 945” (AstraZeneca AB, priority 2007, published 2009)

These molecules were tested against T1, mTOR (Homo sapiens, UniProt P42345) (assay: In Vitro mTOR Kinase Assay (Echo), Test (a)(ii)). Conditions: read-out: mTOR Kinase Assay (Echo).
T1 construct: FLAG; made in house
Assay type: biochemical
From the text: (a)(ii) In Vitro mTOR Kinase Assay (Echo)
The assay used AlphaScreen technology (Gray et al., Analytical Biochemistry, 2003, 313: 234-245) to determine the ability of test compounds to inhibit phosphorylation by recombinant mTOR.
A C-terminal truncation of mTOR encompassing amino acid residues 1362 to 2549 of mTOR (EMBL Accession No. L34075) was stably expressed as a FLAG-tagged fusion in HEK293 cells as described by Vilella-Bach et al., […], 1999, 274, 4266-4272. The HEK293 FLAG-tagged mTOR (1362-2549) stable cell line was routinely maintained at 37° C. with 5% CO2 up to a confluency of 70-90% in Dulbecco's modified Eagle's growth medium (DMEM; Invitrogen Limited, Paisley, UK Catalogue No. 41966-029) containing 10% heat-inactivated foetal calf serum (FCS; Sigma, Poole, Dorset, UK, Catalogue No. F0392), 1% L-glutamine (Gibco, Catalogue No. 25030-024) and 2 mg/ml Geneticin (G418 sulfate; Invitrogen Limited, UK Catalogue No. 1013 1-027). Following expression in the mammalian HEK293 cell line, expressed protein was purified using the FLAG epitope tag using standard purification techniques.
Aliquots (120 nl […]) of each compound dilution were acoustically dispensed placed using a Labcyte Echo 550 into a well of a Greiner 384-well low volume (LV) white polystyrene plate (Greiner Bio-one).
These assay solutions were incubated for 2 hours at room temperature.
Each reaction was stopped by the addition of […] of a mixture of EDTA (50 mM), bovine serum albumin (BSA; 0.5 mg/mL) and Tris-HCl pH 7.4 buffer (50 mM) containing p70 S6 Kinase (T389) 1A5 Monoclonal Antibody (Cell Signalling Technology, Catalogue No. 9206B) and AlphaScreen Streptavidin donor and Protein A acceptor beads (200 ng; Perkin Elmer, Catalogue No. 6760002B and 6760137R respectively) were added and the assay plates were left overnight at room temperature in the dark. The resultant signals arising from laser light excitation at 680 nm were read using a Packard Envision instrument.
The phosphorylated biotinylated peptide that is associated with AlphaScreen Streptavidin donor beads forms a complex with the p70 S6 Kinase (T389) 1A5 Monoclonal Antibody that is associated with Alphascreen Protein A acceptor beads. Upon laser light excitation at 680 nm, the donor bead: acceptor bead complex produces a signal that can be measured. Accordingly, the presence of mTOR kinase activity results in an assay signal. In the presence of an mTOR kinase inhibitor, signal strength is reduced.
mTOR enzyme inhibition for a given test compound was expressed as an IC50 value.

T1 sequence (P42345 1362-2549): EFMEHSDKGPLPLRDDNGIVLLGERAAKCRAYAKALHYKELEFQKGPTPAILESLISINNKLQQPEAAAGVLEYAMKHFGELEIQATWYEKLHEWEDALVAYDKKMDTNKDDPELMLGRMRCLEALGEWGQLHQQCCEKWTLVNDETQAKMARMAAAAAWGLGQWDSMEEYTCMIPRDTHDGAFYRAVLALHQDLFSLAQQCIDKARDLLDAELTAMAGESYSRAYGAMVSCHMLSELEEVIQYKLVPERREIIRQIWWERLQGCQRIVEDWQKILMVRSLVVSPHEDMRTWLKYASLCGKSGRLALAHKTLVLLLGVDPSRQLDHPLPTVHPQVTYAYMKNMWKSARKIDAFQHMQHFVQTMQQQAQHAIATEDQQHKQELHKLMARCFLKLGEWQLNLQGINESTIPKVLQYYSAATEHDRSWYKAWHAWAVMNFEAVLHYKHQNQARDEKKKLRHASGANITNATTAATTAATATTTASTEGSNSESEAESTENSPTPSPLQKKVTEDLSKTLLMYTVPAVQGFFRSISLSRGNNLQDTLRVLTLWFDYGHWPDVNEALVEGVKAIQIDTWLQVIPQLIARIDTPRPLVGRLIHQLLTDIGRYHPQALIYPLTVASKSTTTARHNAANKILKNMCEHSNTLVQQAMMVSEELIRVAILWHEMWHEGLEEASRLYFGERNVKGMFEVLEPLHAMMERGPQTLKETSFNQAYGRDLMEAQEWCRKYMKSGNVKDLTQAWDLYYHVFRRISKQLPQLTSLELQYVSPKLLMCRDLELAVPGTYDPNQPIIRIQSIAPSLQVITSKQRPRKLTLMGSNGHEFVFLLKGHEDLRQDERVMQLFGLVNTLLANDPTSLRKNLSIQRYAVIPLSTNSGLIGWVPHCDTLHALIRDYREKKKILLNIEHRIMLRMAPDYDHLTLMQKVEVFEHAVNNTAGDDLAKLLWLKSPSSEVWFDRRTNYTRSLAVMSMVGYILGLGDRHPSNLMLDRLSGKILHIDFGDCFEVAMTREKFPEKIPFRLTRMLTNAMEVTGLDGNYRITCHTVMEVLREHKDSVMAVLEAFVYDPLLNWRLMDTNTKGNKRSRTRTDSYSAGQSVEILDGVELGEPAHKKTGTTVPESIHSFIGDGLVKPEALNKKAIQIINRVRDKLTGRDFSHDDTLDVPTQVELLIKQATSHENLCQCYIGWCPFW

| Compound | IC50 |
| --- | --- |
| C[C@H]1COCCN1c1cc(C2(S(C)(=O)=O)CC2)nc(-c2ccc(NC(=O)Nc3ccn(C)n3)cc2)n1 [Example 2ad, 1-[4-[4-[(3S)-3-methylmorpholin-4-yl]-6-(1-methylsulfonylcyclopropyl)pyrimidin-2-yl]phenyl]-3-(1-methylpyrazol-3-yl)urea] | 0.705 nM |
| C[C@H]1COCCN1c1cc(C2(S(C)(=O)=O)CCCC2)nc(-c2ccc(NC(=O)NCCO)cc2)n1 [Example 4e, 3-(2-hydroxyethyl)-1-[4-[4-[(3S)-3-methylmorpholin-4-yl]-6-(1-methylsulfonylcyclopentyl)pyrimidin-2-yl]phenyl]urea] | 1.19 nM |
| CS(=O)(=O)C1(c2cc(N3CCOCC3)nc(-c3ccc(NC(=O)NCCCO)cc3)n2)CCCC1 [Example 12o, 3-(3-hydroxypropyl)-1-[4-[4-(1-methylsulfonylcyclopentyl)-6-morpholin-4-ylpyrimidin-2-yl]phenyl]urea] | 5.09 nM |
| CC(C)CNC(=O)Nc1ccc(-c2nc(N3CCOC[C@@H]3C)cc(C3(S(=O)(=O)C4CC4)CC3)n2)cc1 [Example 3c, 1-[4-[4-(1-cyclopropylsulfonylcyclopropyl)-6-[(3S)-3-methylmorpholin-4-yl]pyrimidin-2-yl]phenyl]-3-(2-methylpropyl)urea] | 12.4 nM |

Now from value to molecule:

| IC50 | Compound |
| --- | --- |
| 1.62 nM | CNC(=O)Nc1ccc(-c2nc(N3CCOCC3)cc(C3(S(C)(=O)=O)CCC3)n2)cc1 [Example 12q, 3-methyl-1-[4-[4-(1-methylsulfonylcyclobutyl)-6-morpholin-4-ylpyrimidin-2-yl]phenyl]urea] |
| 10.5 nM | CC(C)S(=O)(=O)C1(c2cc(N3CCOC[C@@H]3C)nc(-c3ccc(NC(=O)NCCCO)cc3)n2)CC1 [Example 7j, 3-(3-hydroxypropyl)-1-[4-[4-[(3S)-3-methylmorpholin-4-yl]-6-(1-propan-2-ylsulfonylcyclopropyl)pyrimidin-2-yl]phenyl]urea] |
| 0.874 nM | CCNC(=O)Nc1ccc(-c2nc(N3CCOC[C@@H]3C)cc(C3(S(=O)(=O)c4ccncc4)CC3)n2)cc1 [Example 6d, 3-ethyl-1-[4-[4-[(3S)-3-methylmorpholin-4-yl]-6-(1-pyridin-4-ylsulfonylcyclopropyl)pyrimidin-2-yl]phenyl]urea] |
| 1.86 nM | C[C@H]1COCCN1c1cc(C2(S(=O)(=O)c3ccncc3)CC2)nc(-c2ccc(NC(=O)NCCCO)cc2)n1 [Example 6k] |

Same assay, conditions: table of enzyme assay Test (a)(ii); read-out: Test (a)(ii) IC50

| Compound | IC50 |
| --- | --- |
| C[C@H]1COCCN1c1cc(C2(S(=O)(=O)c3cc(F)cc(F)c3)CC2)nc(-c2ccc(NC(=O)Nc3ccccn3)cc2)n1 [Example 19b, 1-[4-[4-[1-(3,5-difluorophenyl)sulfonylcyclopro-pyl]-6-[(3S)-3-methylmorpholin-4-yl]pyrimidin-2-yl]phenyl]-3-pyridin-2-ylurea] | 1.19 nM |
| CNC(=O)Nc1ccc(-c2nc(N3CCOC[C@@H]3C)cc(C3(S(=O)(=O)c4ccccc4)CCOCC3)n2)cc1 [Example 36cy, 1-[4-[4-[4-(benzenesulfonyl)oxan-4-yl]-6-[(3S)-3-methylmorpholin-4-yl]pyrimidin-2-yl]phenyl]-3-methylurea] | 47.8 nM |
| CCS(=O)(=O)C1(c2cc(N3CCOC[C@@H]3C)nc(-c3ccc(NC(=O)NCc4ncc[nH]4)cc3)n2)CC1 [Example 36w, 1-[4-[4-(1-ethylsulfonylcyclopropyl)-6-[(3S)-3-methylmorpholin-4-yl]pyrimidin-2-yl]phenyl]-3-(1H-imidazol-2-ylmethyl)urea] | 110 nM |
| CC[C@H]1COCCN1c1cc(C2(S(C)(=O)=O)CC2)nc(-c2ccc(NC(=O)NCC(F)F)cc2)n1 [Example 84d, 3-(2,2-difluoroethyl)-1-[4-[4-[(3S)-3-ethylmorpholin-4-yl]-6-(1-methylsulfonylcyclopropyl)pyrimidin-2-yl]phenyl]urea] | 9.59 nM |
| C[C@H]1COCCN1c1cc(C2(S(=O)(=O)c3ccc(C#N)cc3Cl)CC2)nc(-c2ccc(NC(=O)NC3CC3)cc2)n1 [Example 85g, 1-[4-[4-[1-(2-chloro-4-cyanophenyl)sulfonylcyclopropyl]-6-[(3S)-3-methylmorpholin-4-yl]pyrimidin-2-yl]phenyl]-3-cyclopropylurea] | 25.9 nM |
| C[C@H]1COCCN1c1cc(C2(S(C)(=O)=O)CCCC2)nc(-c2ccc(NC(=O)NCCO)cc2)n1 [Example 4e, 3-(2-hydroxyethyl)-1-[4-[4-[(3S)-3-methylmorpholin-4-yl]-6-(1-methylsulfonylcyclopentyl)pyrimidin-2-yl]phenyl]urea] | 0.767 nM |
| C[C@H]1COCCN1c1cc(C2(S(C)(=O)=O)CC2)nc(-c2ccc(NC(=O)NC3CC3)c(F)c2)n1 [Example 52, 3-cyclopropyl-1-[2-fluoro-4-[4-[(3S)-3-methylmorpholin-4-yl]-6-(1-methylsulfonylcyclopropyl)pyrimidin-2-yl]phenyl]urea] | 18.4 nM |
| CC(C)(CO)NC(=O)Nc1ccc(-c2nc(N3CCOCC3)cc(C3(S(=O)(=O)C4CC4)CC3)n2)cc1 [Example 13e, 1-[4-[4-(1-cyclopropylsulfonylcyclopropyl)-6-morpholin-4-ylpyrimidin-2-yl]phenyl]-3-(1-hydroxy-2-methylpropan-2-yl)urea] | 30.1 nM |
| C[C@H]1COCCN1c1cc(C2(S(=O)(=O)c3ccccc3)CCOCC2)nc(-c2ccc(NC(=O)NCCO)cc2)n1 [Example 36db, 1-[4-[4-[4-(benzenesulfonyl)oxan-4-yl]-6-[(3S)-3-methylmorpholin-4-yl]pyrimidin-2-yl]phenyl]-3-(2-hydroxyethyl)urea] | 20.9 nM |
| CC[C@H]1COCCN1c1cc(C2(S(=O)(=O)c3ccccc3)CC2)nc(-c2ccc(NC(=O)N[C@H](C)CO)cc2)n1 [Example 74g, 1-[4-[4-[1-(benzenesulfonyl)cyclopropyl]-6-[(3S)-3-ethylmorpholin-4-yl]pyrimidin-2-yl]phenyl]-3-[(2R)-1-hydroxypropan-2-yl]urea] | 4.33 nM |

Other lines, results leading:

| IC50 | Compound |
| --- | --- |
| 29 nM | C[C@H]1COCCN1c1cc(C2(S(=O)(=O)CCCO)CCCC2)nc(-c2ccc(NC(=O)NCCO)cc2)n1 [Example 43g, 3-(2-hydroxyethyl)-1-[4-[4-[1-(3-hydroxypropyl-sulfonyl)cyclopen-tyl]-6-[(3S)-3-methylmorpholin-4-yl]pyrimidin-2-yl]phenyl]urea] |
| 11.9 nM | CNC(=O)Nc1ccc(-c2nc(N3CCOC[C@@H]3C)cc(C3(S(=O)(=O)c4ccc(NC)cc4F)CC3)n2)cc1 [Example 57, 1-[4-[4-[1-(2-Fluoro-4-methylaminophenyl)sulfonylcyclopropyl]-6-[(3S)-3-methylmorpholin-4-yl]pyrimidin-2-yl]phenyl]-3-methylurea] |
| 4.62 nM | C[C@H]1COCCN1c1cc(C2(S(=O)(=O)c3ccc(Cl)cc3)CC2)nc(-c2ccc(NC(=O)NC(C)(C)CO)cc2)n1 [Example 27k, 1-[4-[4-[1-(4-chlorophenyl)sulfonylcyclopropyl]-6-[(3S)-3-methylmorpholin-4-yl]pyrimidin-2-yl]phenyl]-3-(1-hydroxy-2-methylpropan-2-yl)urea] |
| 5.39 nM | C[C@H]1COCCN1c1cc(C2(S(=O)(=O)CCCO)CCC2)nc(-c2ccc(NC(=O)NC3CC3)cc2)n1 [Example 43, 3-Cyclopropyl-1-[4-[4-[1-(3-hydroxypropylsulfonyl)cyclobutyl]-6-[(3S)-3-methylmorpholin-4-yl]pyrimidin-2-yl]phenyl]urea] |
| 1.11 nM | C[C@H]1COCCN1c1cc(C2(S(=O)(=O)c3ccc(F)c(F)c3)CC2)nc(-c2ccc(NC(=O)NCCF)cc2)n1 [Example 64l, 1-[4-[4-[1-(3,4-difluorophenyl)sulfonylcyclopro-pyl]-6-[(3S)-3-methylmorpholin-4-yl]pyrimidin-2-yl]phenyl]-3-(2-fluoroethyl)urea] |
